Assays:
Embryogenic calli = assay: X-gluc staining of calli immediately after 53 hours co-culture; format: cell-based, Jatropha curcas; settings: AS 200 μM, pCambia1305.1 bar
Excerpt: The calli were immediately stained with X-gluc and photographed.
The calli were immediately stained with X-gluc.

[1] = test system: Jatropha curcas somatic embryos / somatic embryogenic calli; settings: TE7, AGL1 pST2eGFP
Method: Embryogenic cell lines, for example, JS4 cell line, which was derived from a zygotic embryo of an Indonesian Jatropha curcas collection, were subcultured every week by transferring about 3 g of the cell mass to 20 ml J20P medium. 3-5 days after subculture, the embryogenic calli cell mass was collected.
Co-culture plates were made by pouring about 30 ml JIM2H solid medium to each 90 mm Petri dish. Alternatively, 3-4 sheets of cellulose filter paper can be soaked with JIM2H liquid medium before placing into a 90 mm Petri dish. One sheet of 82 mm Hybond N membrane was over-laid to the medium-soaked cellulose filter paper or solid JIM2H medium. About 0.75 g embryogenic calli was mixed with 200 ul Agrobacterium cells on the membrane. After one hour incubation at room temperature, excess liquid medium containing the Agrobacterium cells was removed. The plates were capped, sealed with 3M tape and incubated at 24° C. with dim light for 2-3 days.
Fresh colonies of AGL2 or AGL3 harboring pCambia1305.1 were inoculated into 30 ml LB medium that had been supplemented with 25 mg/l rifampicin and 50 mg/l kanamycin. Cells were cultured at 28° C., 200-230 RPM until OD600 reached 0.8-2.0. […]
In about 3 weeks, the embryos were transferred to G35-2 medium with 10 mg/l hygromycin. […] Rooted plantlets were ready for planting in soil in 2-3 weeks. […]

[2] = test system: Somatic embryogenic calli from 4 different cell lines; settings: DPI at about 10 μM; AGL2(pCambia1305.1); LMP Bd2 embedding; two months selection; average of four cell lines
Method: The co-culture medium JIM2 was supplemented with either 1 μM diphenyl iodonium (DPI), 5 μM DPI or a mixture of antioxidants with a final concentration of 1 mM Na-thiosulfate, 8.8 mM L-cysteine and 1 mM dithiothreitol (DTT). Hygromycin resistant somatic embryos were scored after two months selection. The number of somatic embryos derived from co-culture with DPI-free JIM2 (CK) was set at 100 in each cell line and the relative number of somatic embryos in other co-culture conditions was calculated by dividing the actual number by that of CK.
Somatic embryogenic calli from 4 different cell lines were co-cultured with AGL2(pCambia1305.1) and selection was done by the LMP Bd2 embedding method. The co-culture medium JIM2 was supplemented with either 1 μM DPI, 5 μM DPI or a mixture of antioxidants with a final concentration of 1 mM Na-thiosulfate, 8.8 mM L-cysteine and 1 mM DTT. Hygromycin resistant somatic embryos were scored after two months selection. In transformation using each cell line, the number of somatic embryos derived from co-culture with DPI-free JIM2 (CK) was set at 100 and relative number of somatic embryos in other co-culture conditions was calculated by dividing the actual number by that of CK.

[3] = test system: Soybean embryogenic suspension culture (derived Peking 18); settings: 1 μM DPI in co-culture medium; pre-induced AGL1(pCambia1305.1); 2.5 day at 24° C.; 10 mg/l hygromycin selection; control about 40%
Method: Soybean embryogenic suspension culture (derived Peking 18) was co-cultured for 2.5 day at 24° C. with pre-induced AGL1(pCambia1305.1) on nylon membrane, which was placed on top of solid medium (1M with 20 mg/l 2,4-D and B5 vitamins) that was supplemented with 1 μM DPI or 1 mM Na-thiosulfate, 8.8 mM L-cysteine and 1 mM DTT. After selection with 10 mg/l hygromycin, the calli clumps were stained with X-gluc.

COc1cc(C(C)=O)cc(OC)c1O [AS, acetosyringone]
Effect of AS on transformation efficiency in AGL2 (Embryogenic calli): further boosted transformation efficiency

c1ccc2c(c1)[I+]c1ccccc1-2 [DPI, diphenylene iodonium]
Effect of DPI on explants ([1]; liquid medium SE): DPI caused no damage on
Improvement of transformation efficiency (relative number of hygromycin resistant somatic embryos vs DPI-free JIM2) [2]: more than 2 folds
calli clumps showing GUS staining [3]: more than 80%

NC[C@H]1O[C@H](O[C@H]2[C@H](O)[C@@H](O[C@H]3O[C@H](CO)[C@@H](O)[C@H](N)[C@H]3O)[C@H](N)C[C@@H]2N)[C@H](O)[C@@H](O)[C@@H]1O [Kan, kanamycin]
Kan selection concentration found OK ([1]; Kan 0, 25, 50 and 80 mg/l tested, SE on solid medium): 50-80 mg/l OK, heavy

— patent publication US10167479B2, “Agrobacterium strains for plant transformation” (priority 2009, dated 2019)
